Experiments:
Type in all cases: cell-based
[1] = molecular target: human calcitonin receptor (CTR) and RAMP3 (AMY3) in COS-7 cells (Homo sapiens, UniProt O60896+P30988); test: Amylin Receptor cAMP Assay I; conditions: values marked *: Amylin Receptor cAMP Assay I; COS-7/AMY3 cells; read-out: Amylin Receptor cAMP Stimulation Activity: EC50
Summary of the method: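 COS-7 cells stably co-expressing human CTR and RAMP3 (AMY3) were stimulated with serially diluted compounds (4-fold) in DPBS with 0.5 mM IBMX and 0.1% BSA for 30 min at 37 °C, 1000 cells/well. cAMP accumulation was measured by HTRF (cAMP-d2/anti-cAMP cryptate, 1 h RT) read at 665/615 nm.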

[2] = molecular target: T1, human calcitonin receptor (CTR) in COS-7 cells (Homo sapiens, UniProt P30988); test: Calcitonin Receptor (CTR) cAMP Assay; conditions: COS7-human CTR Clone #2 cells; read-out: Calcitonin Receptor cAMP Stimulation Activity: EC50
T1 construct: expressed in transfected cells; host or cells: COS-7 (COS7-human CTR Clone #2)
T1 sequence (P30988 25-474): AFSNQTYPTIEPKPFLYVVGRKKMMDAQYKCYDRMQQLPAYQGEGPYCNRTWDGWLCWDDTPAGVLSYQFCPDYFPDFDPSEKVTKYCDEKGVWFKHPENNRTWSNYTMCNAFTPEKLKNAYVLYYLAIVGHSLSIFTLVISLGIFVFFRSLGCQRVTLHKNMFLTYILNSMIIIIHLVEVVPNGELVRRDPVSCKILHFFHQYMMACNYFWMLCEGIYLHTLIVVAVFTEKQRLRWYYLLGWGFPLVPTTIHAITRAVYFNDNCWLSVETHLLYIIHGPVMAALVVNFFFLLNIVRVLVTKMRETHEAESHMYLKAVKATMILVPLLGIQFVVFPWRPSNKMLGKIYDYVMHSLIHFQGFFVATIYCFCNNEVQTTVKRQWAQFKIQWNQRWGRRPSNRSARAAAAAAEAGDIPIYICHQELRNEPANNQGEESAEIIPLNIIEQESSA
Excerpt: Calcitonin Receptor (CTR) cAMP Assay
The calcitonin receptor (CTR) belongs to the subfamily of GPCRs known as the secretin or ‘B’ family of GPCRs. Like other class B1 GPCRs, the CT receptor family is canonically coupled to Gs-mediated cAMP production, and measurement of cAMP accumulation has been the primary assay used to determine peptide selectivity and potency.
(§1) To optimize functional activity directed toward Gas coupling, COS-7 cells were stably transfected with human calcitonin receptor (CTR) to create COS7-human CTR Clone #2 stable cell line. 100× concentration of compound working solutions were prepared with 4-fold serial dilution in 384-well Echo LDV plate (Labcyte, Cat #LP-0200-BC). 200 nL/well 100× concentration of compound working solutions were moved to 384-well white microplate (Perkin Elmer, Cat #6007680) using Labcyte ECHO550. 1×10^5 cells/mL COS7-human CTR Clone #2 cell suspensions prepared with assay buffer [HBSS containing 20 mM HEPES (Gibco, Cat #15630-080), 0.5 mM IBMX (Sigma, Cat #15879) and 0.1% Casein (Sigma, Cat #C4765)], 20 μL cell suspensions were added to each well of previous generated assay plate which already contains 200 nL compound at 100× concentration using ThermoFisher Multidrop Combi (2000 cells/well). Seal the plate and incubate at 37° C. with 5% CO2 for 30 min.
(§2) After incubation, the cAMP assay signal was generated using cAMP dynamic 2 kit (Revvity, Cat #62AM4PEC). 10 μL cAMP-d2 working solution was added to each well, followed by 10 L Anti-cAMP antibody-cryptate working solution which was added to each well using CERTUS FLEX LIQUID DISPENSER. The samples were then incubated at room temperature for 1 hour protected from light. the fluorescence was read at 665 and 615 nm with Reader PerkinElmer EnVision 2105.

Amylin Receptor = Amylin Receptor (Homo sapiens, UniProt O60896+P30988); test: Amylin Receptor cAMP stimulation, assay version (I or II) not marked; conditions: values without footnote mark; assay I or II not stated
Procedure: To optimize functional activity directed toward Gas coupling, COS-7 cells were stably transfected with human calcitonin receptor (CTR) and RAMP3, simultaneously. 100× concentration of compound working solutions were prepared (Agilent Technologies Bravo) with 4-fold serial dilution in 384-well Echo LDV plate (Labcyte, Cat #LP-0200). 100 nL/well 100× concentration of compound working solutions were moved to 384-well white low volume plate (Greiner, Cat #784075) using Labcyte ECHO550. 1×10^5 cells/mL COS-7/CTR or COS-7/AMY3 (HD Biosciences) cell suspensions prepared with assay buffer [DPBS containing 0.5 mM IBMX (Sigma, Cat #15879) and 0.1% BSA (GENVIEW, Cat #FA016-100 g)], 10 μL cell suspensions were added to each well of previous generated assay plate which already contains 100 nL compound at 100× concentration using ThermoFisher Multidrop Combi (1000 cells/well). Seal the plate and incubate at 37° C. with 5% CO2 for 30 min.
as §2, with “Hi-range Kit (Cisbio). 5” for “dynamic 2 kit (Revvity, Cat #62AM4PEC). 10”, “5 μL” for “10 L”, “ThermoFisher Multidrop Combi.” for “CERTUS FLEX LIQUID DISPENSER.”, “EnVision.” for “EnVision 2105.”
as §1, with “and RAMP3, simultaneously.” for “to create COS7-human CTR Clone #2 stable cell line.”, “COS-7/AMY3” for “COS7-human CTR Clone #2”
as §2, with “10 μL” for “10 L”

Chain of human calcitonin receptor (CTR) and RAMP3 (AMY3) in COS-7 cells (O60896 24-148, one chain of several): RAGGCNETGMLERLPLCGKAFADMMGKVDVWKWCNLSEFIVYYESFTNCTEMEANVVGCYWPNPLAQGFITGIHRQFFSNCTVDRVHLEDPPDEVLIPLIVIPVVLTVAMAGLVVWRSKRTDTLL
Chain of Amylin Receptor (O60896 24-148, one chain of several): as above

Compound | EC50 [1] | EC50 [2] | EC50 (Amylin Receptor)
Cc1nnc(-c2c(CCc3ccc(F)cc3)nc(CC(C)C)c(C(N)=O)c2-c2ccc(C(=O)N[C@@H]3CCc4ccccc43)s2)o1 [Compound 106, N—[(R)-1-indanyl]-5-{5-carbamoyl-2-[2-(p-fluorophenyl)ethyl]-6-isobutyl-3-(5-methyl-1,3,4-oxadiazol-2-yl)-4-pyridyl}-2-thenamide] | 4.1 nM | 2.1 nM | 
Cc1nnc(-c2c(CCc3ccc(F)cc3)nc(CC(C)C)c(C(N)=O)c2-c2ccc3c(c2)CCC3OCc2ccc(F)c(F)c2)o1 (stereo not drawn) [Compound 142, 4-{1-[(3,4-difluorophenyl)methoxy]-5-indanyl}-6-[2-(p-fluorophenyl)ethyl]-2-isobutyl-5-(5-methyl-1,3,4-oxadiazol-2-yl)nicotinamide] | 94 nM | 8.8 nM | 
Cc1nnc(-c2c(CCc3ccc(F)cc3)nc(CC(C)C)c(C(N)=O)c2-c2ccc3c(c2)CCCN3CCc2ccc(F)c(F)c2)o1 [Compound 174, 4-(1-(3,4-difluorophenethyl)-1,2,3,4-tetrahydroquinolin-6-yl)-6-(4-fluorophenethyl)-2-isobutyl-5-(5-methyl-1,3,4-oxadiazol-2-yl)nicotinamide] | 107 nM | 5.7 nM | 
CCc1nc(CC(C)C)c(C(N)=O)c(-c2cc3ccnc(N[C@@H]4CCc5cc(F)ccc54)c3s2)c1-c1nnc(C)o1 [Compound 188, (R)-6-ethyl-4-(7-((5-fluoro-2,3-dihydro-1H-inden-1-yl)amino)thieno[2,3-c]pyridin-2-yl)-2-isobutyl-5-(5-methyl-1,3,4-oxadiazol-2-yl)nicotinamide] | 36.6 nM | 8.1 nM | 
Cc1nnc(-c2c(C34CC(C(F)F)(C3)C4)nc(CC(C)C)c(C(N)=O)c2-c2ccc(C(=O)NCc3ccc(F)c(F)c3)s2)o1 [Compound 190, 4-(5-((3,4-difluorobenzyl)carbamoyl)thiophen-2-yl)-6-(3-(difluoromethyl)bicyclo[1.1.1]pentan-1-yl)-2-isobutyl-5-(5-methyl-1,3,4-oxadiazol-2-yl)nicotinamide] | 4060 nM | 738 nM | 
Cc1nnc(-c2c(CC34CC(C(F)F)(C3)C4)nc(CC(C)C)c(C(N)=O)c2-c2ccc(C(=O)NCc3ccc(F)c(F)c3)s2)o1 [Compound 203, 4-(5-((3,4-difluorobenzyl)carbamoyl)thiophen-2-yl)-6-((3-(difluoromethyl)bicyclo[1.1.1]pentan-1-yl)methyl)-2-isobutyl-5-(5-methyl-1,3,4-oxadiazol-2-yl)nicotinamide] | 939 nM | 65 nM | 
Cc1nnc(-c2c(CCc3ccc(F)cc3)nc(CC(C)C)c(C(N)=O)c2-c2cc3ccnc(NCc4cncc(F)c4)c3s2)o1 [Compound 206, 6-[2-(p-fluorophenyl)ethyl]-4-(7-{[(5-fluoro-3-pyridyl)methyl]amino}-1-thia-6-aza-2-indenyl)-2-isobutyl-5-(5-methyl-1,3,4-oxadiazol-2-yl)nicotinamide] |  |  | 41.5 nM
Cc1cnc(-c2c(CCC3CCOCC3)nc(CC(C)C)c(C(N)=O)c2-c2cc3ccnc(N[C@@H]4CCc5ncccc54)c3s2)o1 [Compound 207, 4-{7-[(R)-4-aza-1-indanylamino]-1-thia-6-aza-2-indenyl}-2-isobutyl-5-(5-methyl-1,3-oxazol-2-yl)-6-[2-(tetrahydro-2H-pyran-4-yl)ethyl]nicotinamide] |  |  | 64.3 nM

Next, values leading:

EC50 [1] | EC50 [2] | EC50 (Amylin Receptor) | Compound
6.6 nM | 1.6 nM |  | Cc1nnc(-c2c(CCc3ccc(F)cc3)nc(CC(C)C)c(C(N)=O)c2-c2ccc(C(=O)NCc3ccc(F)c(F)c3)s2)o1 [Compound 107, N-(3,4-difluorophenyl)methyl-5-{5-carbamoyl-2-[2-(p-fluorophenyl)ethyl]-6-isobutyl-3-(5-methyl-1,3,4-oxadiazol-2-yl)-4-pyridyl}-2-thenamide]
0.8 nM | 0.73 nM |  | COc1cccc2c1CC[C@H]2NC(=O)c1ccc(-c2c(C(N)=O)c(CC(C)C)nc(CCc3ccc(F)cc3)c2-c2nnc(C)o2)s1 [Compound 122, (R)-6-(4-fluorophenethyl)-2-isobutyl-4-(5-((4-methoxy-2,3-dihydro-1H-inden-1-yl)carbamoyl)thiophen-2-yl)-5-(5-methyl-1,3,4-oxadiazol-2-yl)nicotinamide]
4.4 nM | 0.33 nM |  | Cc1nnc(-c2c(CCc3ccc(F)cc3)nc(CC(C)C)c(C(N)=O)c2-c2cc3ccnc(NCc4ccc(F)c(F)c4)c3s2)o1 [Compound 131, 4-(7-{[(3,4-difluorophenyl)methyl]amino}-1-thia-6-aza-2-indenyl)-6-[2-(p-fluorophenyl)ethyl]-2-isobutyl-5-(5-methyl-1,3,4-oxadiazol-2-yl)nicotinamide]
> 1000 nM | 280 nM |  | COC1CCCN(c2nccc3cc(-c4c(C(N)=O)c(CC(C)C)nc(CCc5ccc(F)cc5)c4-c4nnc(C)o4)sc23)C1 (stereo not drawn) [Compound 135, 6-(4-fluorophenethyl)-2-isobutyl-4-(7-(3-methoxypiperidin-1-yl)thieno[2,3-c]pyridin-2-yl)-5-(5-methyl-1,3,4-oxadiazol-2-yl)nicotinamide]
51.4 nM | 6.9 nM |  | Cc1nnc(-c2c(CCc3ccc(F)cc3)nc(CC(C)C)c(C(N)=O)c2-c2ccc3c(ccn3CCc3ccc(F)c(F)c3)c2)o1 [Compound 144, 4-(1-(3,4-difluorophenethyl)-1H-indol-5-yl)-6-(4-fluorophenethyl)-2-isobutyl-5-(5-methyl-1,3,4-oxadiazol-2-yl)nicotinamide]

Source: patent US20250042916A1 (ACONCAGUA BIO, INC., priority 2023, published 2025)
